# Numbers after ± are expanded uncertainties.
# Test: wn = mass fraction of the nth substance listed
# Settings: 348 K, 101 kPa, Liquid, Pycnometric method
compound,measurement,setting,value
[Cl-].[Na+] [sodium chloride] + O,mass density,w1 = 0.2745,1183 ± 1.4 kg/m3
[Cl-].[Cl-].[Sr+2] [strontium chloride] + O,mass density,w1 = 0.4775,1620.5 ± 21 kg/m3
[Cl-].[K+] [potassium chloride] + O,mass density,w1 = 0.332,1204 ± 1.6 kg/m3

# From the NIST ThermoML archive (doi:10.1021/acs.jced.5b00094)
